In US10821115B2, “Compounds that inhibit Mcl-1 protein” (priority 2017, dated 2020):
Read-outs that look alike come from different tables or passages of the source.

Key:
[1] = system: human multiple myeloma cell line, OPM-2; assay: Cell viability assay (OPM-2 10 FBS), CellTiter-Glo; assay type: cell-based
How it was run: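 Cells were seeded at 3000 cells/well in RPMI 1640 with 10% FBS and exposed to serially diluted compounds for 16 h at 37 °C, 5% CO2.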

[2] = target: recombinant human Mcl-1 (residues 171-327) / Bim interaction (Homo sapiens (Human), UniProt Q07820); assay: biochemical; assay type: binding; conditions: read-out: Mcl-1 HTRF IC50
Chain of recombinant human Mcl-1 (residues 171-327) / Bim interaction (Q07820 171-327): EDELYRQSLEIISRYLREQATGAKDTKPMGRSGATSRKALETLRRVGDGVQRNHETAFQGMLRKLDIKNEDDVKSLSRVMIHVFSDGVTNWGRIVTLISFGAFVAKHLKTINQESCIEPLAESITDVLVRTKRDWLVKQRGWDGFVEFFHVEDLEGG

[3] = Homo sapiens, OPM-2, 16 h, read-out: OPM-2 10% FBS IC50 IP, OPM-2 cells, 10% FBS, 16 h, CellTiter-Glo
[4] = TR-FRET, Mcl-1(171-327) / biotin-Bim (51-76)
[5] = Homo sapiens, OPM-2, 16 h, read-out: OPM-2 10% FBS IC50 IP, OPM-2 cells, 10% FBS, 16 h incubation
[6] = 0.1 nM Mcl-1(171-327), 0.05 nM biotin-Bim (51-76)

Structure (SMILES)	IC50 [1, 3]	IC50 [2, 4]	IC50 [1, 5]	IC50 [2, 6]	IC50 ([1]; read-out: OPM-2 10% FBS IC50 IP, OPM-2 cells, 10% FBS, 16 h, CellTiter-Glo)
CO[C@@]1(C[C@@H](O)C(C)C)/C=C/C[C@H](C)[C@@H](C)S(=O)(=O)NC(=O)c2ccc3c(c2)N(C[C@@H]2CC[C@H]21)C[C@@]1(CCCc2cc(Cl)ccc21)CO3 (racemic) [Example 100326, (1S,3′R,6′R,7′S,8′E,11′S,12′R)-6-chloro-7′-((2R)-2-hydroxy-3-methylbutyl)-7′-methoxy-11′,12′-dimethyl-3,4-dihydro-2H,15′H-spiro[naphthalene-1,22′-[20]oxa[13]thia[1,14]diazatetracyclo [14.7.2.0~3,6~.0~19,24~]pentacosa[8,16,18,24]tetraen]-15′-one 13′,13′-dioxide]	334 nM	0.615 nM	–	–	–
COC[C@@H]1[C@@H](C)C/C=C/[C@](CN2CCN(C(C)(C)C)CC2)(OC)[C@@H]2CC[C@H]2CN2C[C@@]3(CCCc4cc(Cl)ccc43)COc3ccc(cc32)C(=O)NS1(=O)=O [Example 174, (1S,3′R,6′R,7′S,8′E,11′S,12′S)-7′-((4-tert-butyl-1-piperazinyl)methyl)-6-chloro-7′-methoxy-12′-(methoxymethyl)-11′-methyl-3,4-dihydro-2H,15′H-spiro[naphthalene-1,22′-[20]oxa[13]thia[1,14]diazatetracyclo [14.7.2.0~3,6~.0~19,24~]pentacosa[8,16,18,24]tetraen]-15′-one 13′,13′-dioxide]	–	–	639 nM	0.322 nM	–
CO[C@@]1(c2ccc(F)nc2)/C=C/C[C@H](C)[C@@H](C)S(=O)(=O)NC(=O)c2ccc3c(c2)N(C[C@@H]2CC[C@H]21)C[C@@]1(CCCc2cc(Cl)ccc21)CO3 (single isomer, unassigned) [Example 100535]	–	0.57 nM	–	–	964 nM
CO[C@@]1(CN2CCN3C(=O)[C@H](C)OC[C@@H]3C2)/C=C/C[C@H](C)[C@@H](C)S(=O)(=O)NC(=O)c2ccc3c(c2)N(C[C@@H]2CC[C@H]21)C[C@@]1(CCCc2cc(Cl)ccc21)CO3 [Example 143, (1S,3′R,6′R,7′S,8′E,11′S,12′R)-6-chloro-7′-methoxy-11′,12′-dimethyl-7′-(((3S,9aS)-3-methyl-4-oxohexahydropyrazino[2,1-c][1,4]oxazin-8(1H)-yl)methyl)-3,4-dihydro-2H,15′H-spiro[naphthalene-1,22′-[20]oxa[13]thia[1,14]diazatetracyclo [14.7.2.0~3,6~.0~19,24~]pentacosa[8,16,18,24]tetraen]-15′-one 13′,13′-dioxide]	–	–	219 nM	0.432 nM	–
CO[C@@]1(CC(=O)[C@H](C)CN(C)C)/C=C/C[C@H](C)[C@@H](C)S(=O)(=O)NC(=O)c2ccc3c(c2)N(C[C@@H]2CC[C@H]21)C[C@@]1(CCCc2cc(Cl)ccc21)CO3 (single isomer, unassigned) [Example 100478]	4090 nM	3.47 nM	–	–	–
C[C@@H]1[C@@H](C)C/C=C/[C@@](O)(CC=O)[C@@H]2CC[C@H]2CN2C[C@@]3(CCCc4cc(Cl)ccc43)COc3ccc(cc32)C(=O)NS1(=O)=O [Example 100171, ((1S,3′R,6′R,7′S,8′E,11′S,12′R)-6-chloro-7′-hydroxy-11′,12′-dimethyl-13′,13′-dioxido-15′-oxo-3,4-dihydro-2H-spiro[naphthalene-1,22′-[20]oxa[13]thia[1,14]diazatetracyclo [14.7.2.0~3,6~.0~19,24~]pentacosa[8,16,18,24]tetraen]-7′-yl)acetaldehyde]	868 nM	0.578 nM	–	–	–
CC(C)CO[C@]1(CN2CCN3CCCC[C@@H]3C2)/C=C/C[C@H](C)[C@@H](C)S(=O)(=O)NC(=O)c2ccc3c(c2)N(C[C@@H]2CC[C@H]21)C[C@@]1(CCCc2cc(Cl)ccc21)CO3 [Example 354, (1S,3′R,6′R,7′R,8′E,11′S,12′R)-6-chloro-11′,12′-dimethyl-7′-(2-methylpropoxy)-7′-((9aR)-octahydro-2H-pyrido[1,2-a]pyrazin-2-ylmethyl)-3,4-dihydro-2H,15′H-spiro[naphthalene-1,22′-[20]oxa[13]thia[1,14]diazatetracyclo [14.7.2.0~3,6~.0~19,24~]pentacosa[8,16,18,24]tetraen]-15′-one 13′,13′-dioxide]	–	–	450 nM	0.214 nM	–
COCC[C@@H]1[C@@H](C)C/C=C/[C@](CN2CCN3CCCC[C@@H]3C2)(OC)[C@@H]2CC[C@H]2CN2C[C@@]3(CCCc4cc(Cl)ccc43)COc3ccc(cc32)C(=O)NS1(=O)=O [Example 182, (1S,3′R,6′R,7′S,8′E,11′S,12′R)-6-chloro-7′-methoxy-12′-(2-methoxyethyl)-11′-methyl-7′-((9aR)-octahydro-2H-pyrido[1,2-a]pyrazin-2-ylmethyl)-3,4-dihydro-2H,15′H-spiro[naphthalene-1,22′-[20]oxa[13]thia[1,14]diazatetracyclo [14.7.2.0~3,6~.0~19,24~]pentacosa[8,16,18,24]tetraen]-15′-one 13′,13′-dioxide]	–	–	88 nM	0.171 nM	–
CO[C@@]1(CN2CCN(c3ccncc3)CC2)/C=C/C[C@H](C)[C@@H](C)S(=O)(=O)NC(=O)c2ccc3c(c2)N(C[C@@H]2CC[C@H]21)C[C@@]1(CCCc2cc(Cl)ccc21)CO3 [Example 254, (1S,3′R,6′R,7′S,8′E,11′S,12′R)-6-chloro-7′-methoxy-11′,12′-dimethyl-7′-((4-(4-pyridinyl)-1-piperazinyl)methyl)-3,4-dihydro-2H,15′H-spiro[naphthalene-1,22′-[20]oxa[13]thia[1,14]diazatetracyclo [14.7.2.0~3,6~.0~19,24~]pentacosa[8,16,18,24]tetraen]-15′-one 13′,13′-dioxide]	–	–	544 nM	1.2 nM	–
C[C@@H]1[C@@H](C)C/C=C/[C@](O)(c2c[nH]nn2)[C@@H]2CC[C@H]2CN2C[C@@]3(CCCc4cc(Cl)ccc43)COc3ccc(cc32)C(=O)NS1(=O)=O [Example 100239, (1S,3′R,6′R,7′R,8′E,11′S,12′R)-6-chloro-7′-hydroxy-11′,12′-dimethyl-7′-(1H-1,2,3-triazol-4-yl)-3,4-dihydro-2H,15′H-spiro[naphthalene-1,22′-[20]oxa[13]thia[1,14]diazatetracyclo [14.7.2.0~3,6~.0~19,24~]pentacosa[8,16,18,24]tetraen]-15′-one 13′,13′-dioxide]	3740 nM	0.333 nM	–	–	–
CO[C@@]1(CC(=O)On2nnc3cccnc32)/C=C/C[C@H](C)[C@@H](C)S(=O)(=O)NC(=O)c2ccc3c(c2)N(C[C@@H]2CC[C@H]21)C[C@@]1(CCCc2cc(Cl)ccc21)CO3 [Example 100576, (1S,3′R,6′R,7′S,8′E,11′S,12′R)-6-chloro-7′-methoxy-11′,12′-dimethyl-7′-(2-oxo-2-(3H-[1,2,3]triazolo[4,5-b]pyridin-3-yloxy)ethyl)-3,4-dihydro-2H,15′H-spiro[naphthalene-1,22′-[20]oxa[13]thia[1,14]diazatetracyclo [14.7.2.0~3,6~.0~19,24~]pentacosa[8,16,18,24]tetraen]-15′-one 13′,13′-dioxide]	4090 nM	1.15 nM	–	–	–
COCC[C@@H]1[C@@H](C)C/C=C/[C@@](CN2CCN(C)CC2)(OC)[C@@H]2CC[C@H]2CN2C[C@@]3(CCCc4cc(Cl)ccc43)COc3ccc(cc32)C(=O)NS1(=O)=O [Example 178, (1S,3′R,6′R,7′R,8′E,11′S,12′R)-6-chloro-7′-methoxy-12′-(2-methoxyethyl)-11′-methyl-7′-((4-methyl-1-piperazinyl)methyl)-3,4-dihydro-2H,15′H-spiro[naphthalene-1,22′-[20]oxa[13]thia[1,14]diazatetracyclo [14.7.2.0~3,6~.0~19,24~]pentacosa[8,16,18,24]tetraen]-15′-one 13′,13′-dioxide]	–	–	71 nM	0.177 nM	–
